Data from patent publication US12577217B2, “15-PGDH inhibitor” (KYORIN Pharmaceutical Co., Ltd., priority 2019, dated 2026).

Target: T1, recombinant human 15-PGDH (Homo sapiens, UniProt P15428)
T1 construct: purchased R&D Systems
T1 sequence (P15428 1-266): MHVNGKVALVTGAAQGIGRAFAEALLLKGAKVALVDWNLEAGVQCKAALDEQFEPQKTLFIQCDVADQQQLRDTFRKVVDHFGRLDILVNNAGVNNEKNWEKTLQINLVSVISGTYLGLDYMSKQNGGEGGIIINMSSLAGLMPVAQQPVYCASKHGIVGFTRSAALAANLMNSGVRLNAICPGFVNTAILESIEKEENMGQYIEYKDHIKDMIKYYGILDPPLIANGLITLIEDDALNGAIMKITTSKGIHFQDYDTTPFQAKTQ
Experiment: 15-PGDH enzyme inhibition test
Assay type: biochemical
Conditions: 4 nM recombinant human 15-PGDH, 30 μM PGE2, 1 mM NAD+, 60 minutes after starting the reaction; read-out: IC50 Value
Summary of the method: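 Fluorescence (excitation 340 nm, emission 440 nm) measured 60 min after adding 1 mM NAD+ and 30 μM PGE2 to 4 nM recombinant human 15-PGDH, which had stood 12 min at room temperature with compound in pH 8.0 Tris-HCl buffer. Concentration-response curves yield IC50, binned into potency categories.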

SMILES	IC50
C[C@H]1CCCN1C(=O)c1cnc2c(c1)OCCN2c1ccn2c(=O)n(C)nc2c1 [Example 8-29]	< 0.01 µM
Cn1nc2cc(N3CCOc4cc(C(=O)N5CC(F)(F)C5)cnc43)ccn2c1=O [Example 8-30]	< 0.01 µM
C[C@@H]1CCCN(C(=O)c2cnc3c(c2)OCCN3c2ccn3c(=O)n(C)nc3c2)C1 [Example 8-31]	< 0.01 µM
C[C@@H]1CCN(C(=O)c2cnc3c(c2)OCCN3c2ccn3c(=O)n(C)nc3c2)C1 [Example 8-32]	< 0.01 µM
Cn1nc2cc(N3CCOc4cc(C(=O)N5CCC[C@@H](O)C5)cnc43)ccn2c1=O [Example 8-33]	< 0.01 µM
C[C@H]1CCCN(C(=O)c2cnc3c(c2)OCCN3c2ccn3c(=O)n(C)nc3c2)C1 [Example 8-34]	< 0.01 µM
C[C@H]1CCN(C(=O)c2cnc3c(c2)OCCN3c2ccn3c(=O)n(C)nc3c2)C1 [Example 8-35]	< 0.01 µM
COC(=O)C1CCCN(C(=O)c2cnc3c(c2)OCCN3c2ccn3c(=O)n(C)nc3c2)C1 (centres unmarked) [Example 8-36]	< 0.01 µM
COC(=O)C1CN(C(=O)c2cnc3c(c2)OCCN3c2ccn3c(=O)n(C)nc3c2)C1 [Example 8-37]	< 0.01 µM
Cn1nc2cc(N3CCOc4cc(C(=O)N5CCC[C@H](O)C5)cnc43)ccn2c1=O [Example 8-38]	< 0.01 µM
Cn1nc2cc(N3CCOc4cc(C(=O)N5C[C@@H]6CC[C@@H](C6)C5)cnc43)ccn2c1=O [Example 8-39]	< 0.01 µM
Cn1nc2cc(N3CCOc4cc(C(=O)N5C[C@H]6C[C@@H](C5)C6)cnc43)ccn2c1=O [Example 8-40]	< 0.01 µM
C[C@@H]1C[C@H](C)CN(C(=O)c2cnc3c(c2)OCCN3c2ccn3c(=O)n(C)nc3c2)C1 [Example 8-41]	< 0.01 µM
Cn1nc2cc(N3CCOc4cc(C(=O)N5CCCC6(CC6)C5)cnc43)ccn2c1=O [Example 8-42]	< 0.01 µM
CCC1CCCN(C(=O)c2cnc3c(c2)OCCN3c2ccn3c(=O)n(C)nc3c2)C1 (centres unmarked) [Example 8-43]	< 0.01 µM
CC1CCN(C(=O)c2cnc3c(c2)OCCN3c2ccn3c(=O)n(C)nc3c2)CC1 [Example 8-44]	< 0.01 µM
Cn1nc2cc(N3CCOc4cc(C(=O)N5CCC6(CC5)CC6)cnc43)ccn2c1=O [Example 8-45]	< 0.01 µM
Cn1nc2cc(N3CCOc4cc(C(=O)N5CCC6CC6C5)cnc43)ccn2c1=O (centres unmarked) [Example 8-46]	< 0.01 µM
CC1CN(C(=O)c2cnc3c(c2)OCCN3c2ccn3c(=O)n(C)nc3c2)CCC1(F)F (centres unmarked) [Example 8-47]	< 0.01 µM
Cn1nc2cc(N3CCOc4cc(C(=O)N5CCCC(C)(F)C5)cnc43)ccn2c1=O (centres unmarked) [Example 8-48]	< 0.01 µM
Cn1nc2cc(N3CCOc4cc(C(=O)N5CCOC6(CC6)C5)cnc43)ccn2c1=O [Example 8-49]	< 0.01 µM
Cn1nc2cc(N3CCOc4cc(C(=O)N5CC(C)(F)C5)cnc43)ccn2c1=O [Example 8-50]	< 0.01 µM
Cn1nc2cc(N3CCOc4cc(C(=O)N5CCCC6(CCO6)C5)cnc43)ccn2c1=O (centres unmarked) [Example 8-51]	0.01 to 0.1 µM
Cn1nc2cc(N3CCOc4cc(C(=O)N5CCCC6(COC6)C5)cnc43)ccn2c1=O [Example 8-52]	0.01 to 0.1 µM
Cn1nc2cc(N3CCOc4nc(C(=O)N5CCCCC5)ccc43)ccn2c1=O [Example 8-53]	< 0.01 µM

SMILES	IC50
Cn1nc2cc(N3CCOc4cc(C(=O)N5CCCC6CC65)cnc43)ccn2c1=O (centres unmarked) [Example 8-54]	< 0.01 µM
CCN(C)C(=O)c1cnc2c(c1)OCCN2c1ccn2c(=O)n(C)nc2c1 [Example 8-55]	< 0.01 µM
Cn1nc2cc(N3CCOc4cc(C(=O)N5[C@@H]6CCC[C@H]5CC6)cnc43)ccn2c1=O [Example 8-56]	< 0.01 µM
Cn1nc2cc(N3CCCOc4cc(C(=O)N5CCC5)cnc43)ccn2c1=O [Example 8-57]	< 0.01 µM
Cn1nc2cc(N3CCCOc4cc(C(=O)N5CCCC5)cnc43)ccn2c1=O [Example 8-58]	< 0.01 µM
Cn1nc2cc(N3CCCOc4cc(C(=O)N5CCCCCC5)cnc43)ccn2c1=O [Example 8-59]	< 0.01 µM
C[C@@H]1CCCN(C(=O)c2cnc3c(c2)OCCCN3c2ccn3c(=O)n(C)nc3c2)C1 [Example 8-60]	< 0.01 µM
C[C@H]1CCCN(C(=O)c2cnc3c(c2)OCCCN3c2ccn3c(=O)n(C)nc3c2)C1 [Example 8-61]	< 0.01 µM
Cn1nc2cc(N3CCCOc4cc(C(=O)N5CCC[C@@H](F)C5)cnc43)ccn2c1=O [Example 8-62]	< 0.01 µM
Cn1nc2cc(N3CCCOc4cc(C(=O)N5CCC[C@H](F)C5)cnc43)ccn2c1=O [Example 8-63]	< 0.01 µM
Cn1nc2cc(N3CCCOc4cc(C(=O)N5CCC(F)(F)CC5)cnc43)ccn2c1=O [Example 8-64]	< 0.01 µM
Cn1nc2cc(N3CCOc4cc(C(=O)N5CCC[C@H](CF)C5)cnc43)ccn2c1=O [Example 8-65]	< 0.01 µM
Cn1nc2cc(N3CCOc4cc(C(=O)N5CCC[C@@H](CF)C5)cnc43)ccn2c1=O [Example 8-66]	< 0.01 µM
Cn1nc2cc(N3CCOc4cc(C(=O)N5CCCC6(CCC6)C5)cnc43)ccn2c1=O [Example 8-67]	< 0.01 µM
CCN1Cc2cc(N3CCCc4cc(C(=O)N5CCC5)cnc43)ccc2C1=O [Example 8-68]	< 0.01 µM
CCN1Cc2cc(N3CCCc4cc(C(=O)N5CCCC5)cnc43)ccc2C1=O [Example 8-69]	< 0.01 µM
CCN1Cc2cc(N3CCCc4cc(C(=O)N5CCCCCC5)cnc43)ccc2C1=O [Example 8-70]	< 0.01 µM
CCN1Cc2cc(N3CCCc4cc(C(=O)N5CCCCCCC5)cnc43)ccc2C1=O [Example 8-71]	< 0.01 µM
CCN1Cc2cc(N3CCCc4cc(C(=O)N5CCOCC5)cnc43)ccc2C1=O [Example 8-72]	< 0.01 µM
CCN1Cc2cc(N3CCCc4cc(C(=O)N5CCN(C)CC5)cnc43)ccc2C1=O [Example 8-73]	< 0.01 µM
CCN1Cc2cc(N3CCCc4cc(C(=O)N5CCN(C(C)=O)CC5)cnc43)ccc2C1=O [Example 8-74]	> 0.1 µM
CCN1Cc2cc(N3CCCc4cc(C(=O)N5CC=CCC5)cnc43)ccc2C1=O [Example 8-75]	< 0.01 µM
CCN1Cc2cc(N3CCCc4cc(C(=O)N5CCc6ccccc6C5)cnc43)ccc2C1=O [Example 8-76]	< 0.01 µM
CCN1Cc2cc(N3CCCc4cc(C(=O)N5Cc6ccccc6C5)cnc43)ccc2C1=O [Example 8-77]	< 0.01 µM
CCN1Cc2cc(N3CCCc4cc(C(=O)N5CCCC[C@H]5C)cnc43)ccc2C1=O [Example 8-78]	< 0.01 µM

SMILES	IC50
CCN1Cc2cc(N3CCCc4cc(C(=O)N5CCCC[C@@H]5C)cnc43)ccc2C1=O [Example 8-79]	< 0.01 µM
CCN1Cc2cc(N3CCCc4cc(C(=O)N5CCC(C)CC5)cnc43)ccc2C1=O [Example 8-80]	< 0.01 µM
CCN1Cc2cc(N3CCCc4cc(C(=O)N5CCCC(C)(F)C5)cnc43)ccc2C1=O (centres unmarked) [Example 8-81]	< 0.01 µM
CCN1Cc2cc(N3CCCc4cc(C(=O)N5CCC(F)(F)C(C)C5)cnc43)ccc2C1=O (centres unmarked) [Example 8-82]	< 0.01 µM
CCN1Cc2cc(N3CCCc4cc(C(=O)N5CCC[C@@H](F)C5)cnc43)ccc2C1=O [Example 8-83]	< 0.01 µM
CCN1Cc2cc(N3CCCc4cc(C(=O)N5CCC[C@H](F)C5)cnc43)ccc2C1=O [Example 8-84]	< 0.01 µM
CCN1Cc2cc(N3CCCc4cc(C(=O)N5CCCC(F)(F)C5)cnc43)ccc2C1=O [Example 8-85]	< 0.01 µM
CCN1Cc2cc(N3CCCc4cc(C(=O)N5CCC(F)CC5)cnc43)ccc2C1=O [Example 8-86]	< 0.01 µM
CCN1Cc2cc(N3CCCc4cc(C(=O)N5CCC[C@@H](C(F)(F)F)C5)cnc43)ccc2C1=O [Example 8-87]	< 0.01 µM
CCN1Cc2cc(N3CCCc4cc(C(=O)N5CCC[C@H](C(F)(F)F)C5)cnc43)ccc2C1=O [Example 8-88]	< 0.01 µM
CCN1Cc2cc(N3CCCc4cc(C(=O)N5CCC[C@@H](C)C5)cnc43)ccc2C1=O [Example 8-89]	< 0.01 µM
CCN1Cc2cc(N3CCCc4cc(C(=O)N5CCC[C@H](C)C5)cnc43)ccc2C1=O [Example 8-90]	< 0.01 µM
CCN1Cc2cc(N3CCCc4cc(C(=O)N5CCC[C@@H](CF)C5)cnc43)ccc2C1=O [Example 8-91]	< 0.01 µM
CCN1Cc2cc(N3CCCc4cc(C(=O)N5CCC[C@H](CF)C5)cnc43)ccc2C1=O [Example 8-92]	< 0.01 µM
CCN1Cc2cc(N3CCCc4cc(C(=O)N5CCC[C@@H](C(F)F)C5)cnc43)ccc2C1=O [Example 8-93]	< 0.01 µM
CCN1Cc2cc(N3CCCc4cc(C(=O)N5CCC[C@H](C(F)F)C5)cnc43)ccc2C1=O [Example 8-94]	< 0.01 µM
Cn1nc2cc(N3CCOc4cc(C(=O)N5CCCC6(C5)CC(F)(F)C6)cnc43)ccn2c1=O [Example 8-95]	0.01 to 0.1 µM
O=C(c1cnc2c(c1)CCCN2c1ccc2c(=O)[nH]cnc2c1)N1CCC(F)(F)CC1 [Example 8-96]	< 0.01 µM
Cn1nc2cc(N3CCOc4cc(C(=O)N5CC6CCC6C5)cnc43)ccn2c1=O (centres unmarked) [Example 8-97]	< 0.01 µM
Cn1nc2cc(N3CCOc4cc(C(=O)N5C[C@H]6CCC[C@H]6C5)cnc43)ccn2c1=O [Example 8-98]	< 0.01 µM
Cn1nc2cc(N3CCOc4cc(C(=O)N5CC6CC6C5)cnc43)ccn2c1=O (centres unmarked) [Example 8-99]	< 0.01 µM
Cn1nc2cc(N3CCOc4cc(C(=O)N5CCC(C)(C)C5)cnc43)ccn2c1=O [Example 8-100]	< 0.01 µM
Cn1nc2cc(N3CCOc4cc(C(=O)N5CCC(C(F)(F)F)CC5)cnc43)ccn2c1=O [Example 8-101]	< 0.01 µM
Cn1nc2cc(N3CCOc4cc(C(=O)N5CCCCCC5)cnc43)ccn2c1=O [Example 8-102]	< 0.01 µM
